Data published in the supplement of paper PMC10307832.

Tests used:
Test in all cases: relative viability (nuclei count vs DMSO), 5 days (fraction); higher = more cells survive
[1] = compound: CCOC(=O)CCNc1cc(N2CCc3ccccc3CC2)nc(-c2ccccn2)n1 [GSK-J4] + Cc1nc(Nc2ncc(C(=O)Nc3c(C)cccc3Cl)s2)cc(N2CCN(CCO)CC2)n1 [Dasatinib] (partner 0.075 µM)
Summary of the method: (§1)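 Cells from lung cancer lines were seeded into 1536-well plates and, one day later, dosed by pin tool. Treatments were either a single drug or a fixed dose of an anchor drug with five library-drug doses (not always all listed) in √10 steps. After 5 days, nuclei were stained in a one-step fixation (final 0.05% Triton X-100, 1% formaldehyde, 1 ug/ml Hoechst) and counted on 4× images, and relative viability is the treated-to-vehicle nuclei ratio, as the median of duplicate plates.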

[2] = compound: CN1CCC(CC1)OC2=CC(=C(C=C2)NC3=NC=C4C(=N3)N(C(=O)N4C)C5CCCC5)OC [AZ3146] + CS(=O)(=O)N1CCN(Cc2cc3nc(-c4cccc5[nH]ncc45)nc(N4CCOCC4)c3s2)CC1 [Pictilisib] (partner 1 µM)
Summary of the method: as §1

[3] = compound: CN1CCC(CC1)OC2=CC(=C(C=C2)NC3=NC=C4C(=N3)N(C(=O)N4C)C5CCCC5)OC [AZ3146] + COc1cccc2cc(-c3nc([C@H]4CC[C@H](C(=O)O)CC4)n4ncnc(N)c34)[nH]c12 [OSI-027] (partner 0.5 µM)
Summary of the method: as §1

[4] = compound: CCOC(=O)CCNc1cc(N2CCc3ccccc3CC2)nc(-c2ccccn2)n1 [GSK-J4] + CC(=O)Nc1cccc(-n2c(=O)n(C3CC3)c(=O)c3c(Nc4ccc(I)cc4F)n(C)c(=O)c(C)c32)c1 [Trametinib] (partner 0.02 µM)
Summary of the method: as §1

UMC-11
relative viability ([1]; first compound 0.5 µM): 0.43 | relative viability ([1]; first compound 5 µM): 0.43 | relative viability ([1]; first compound 15.81 µM): 0.392 | relative viability ([1]; first compound 50 µM): 0.231 | relative viability ([2]; first compound 0.08 µM): 0.698 | relative viability ([2]; first compound 0.253 µM): 0.99 | relative viability ([2]; first compound 0.8 µM): 0.706 | relative viability ([2]; first compound 2.53 µM): 0.802 | relative viability ([2]; first compound 8 µM): 0.513 | relative viability ([3]; first compound 0.08 µM): 0.462 | relative viability ([3]; first compound 0.253 µM): 0.46 | relative viability ([3]; first compound 0.8 µM): 0.425 | relative viability ([3]; first compound 2.53 µM): 0.475 | relative viability ([3]; first compound 8 µM): 0.314 | relative viability ([4]; first compound 0.5 µM): 0.666 | relative viability ([4]; first compound 1.581 µM): 0.336 | relative viability ([4]; first compound 5 µM): 0.255 | relative viability ([4]; first compound 15.81 µM): 0.834 | relative viability ([4]; first compound 50 µM): 0.521
